{
  "source": "patent US9822113B2",
  "about": "“Tricyclic compounds and process for preparation thereof” (Council of Scientific & Industrial Research, priority 2013, dated 2017)",
  "data": [
    {"test_system": "Salmonella enterica", "experiment": "not given", "conditions": "against the bacterial pathogen Salmonella enterica; literature value; cited from earlier work", "units": {"minimum inhibitory concentration (MIC)": "µM"}, "values": [
      {"smiles": "Cc1cc2c3c(c1C)C(C)(C)CCn3c(=O)c(=O)n2C[C@H](O)[C@H](O)[C@H](O)CO", "note": "(stereo in doubt) [Compound 2, 7,7,8,9-tetramethyl-1-((2S,3S,4R)-2,3,4,5-tetrahydroxypentyl)-6,7-dihydro-1H,5H-pyrido[1,2,3-de]quinoxaline-2,3-dione]", "minimum inhibitory concentration (MIC)": 12.4}
    ]},
    {"test_system": "Salmonella enterica strain AMC (ATCC #6539)", "experiment": "Antibiotic assay: MIC by Promega Bac Titer-Glo microbial cell viability assay", "assay_type": "cell-based", "conditions": "24 hours treatment, inoculum ~5×10^4 CFU/mL, Mueller Hinton broth", "experimental": "(§1) In a preferred embodiment, the novel a novel tricyclic compounds of formula (I) and formula (II) are evaluated for anti-microbial activity. The minimum inhibitory concentrations (MICs) is determined using the Promega Bac Titer-Glo microbial cell viability assay. The assays is carried out using Salmonella enterica strain AMC (ATCC #6539), Inocula of S. enterica prepared from 12-h broth cultures grown in Mueller Hinton broth and the suspensions were then adjusted to a turbidity of 0.5 McFarland. […] Bacterial cells were treated with hunanamycin analogs for 24 hours at ranges from 0.4 to 40 μg/mL and ciprofloxacin as a control ranging from 0.03 to 10 μg/mL. The OD600 measured using an Envision multi-modal plate reader (Perkin-Elmer, Inc.).\n(§2) The minimum inhibitory concentrations (MICs) were determined using the Promega Bac Titer-Glo microbial cell viability assay, which measures cell viability by quantitation of ATP present, an indicator of metabolic activity of cells. The assays were carried out using Salmonella enterica strain AMC (ATCC #6539), Inocula of S. enterica were prepared from 12-h broth cultures grown in Mueller Hinton broth and the suspensions were then adjusted to a turbidity of 0.5 McFarland. […] Bacterial cells were treated with hunanamycin analogs for 24 hours at ranges from 0.4 to 40 μg/mL and ciprofloxacin as a control ranging from 0.03 to 10 μg/mL. The OD600 was measured using an Envision multi-modal plate reader (Perkin-Elmer, Inc.). The antibiotic assays were performed in Prof. John B. MacMillan's lab, Department of Biochemistry, University of Texas Southwestern Medical Center at Dallas, USA.", "units": {"MIC": "µg/mL"}, "values": [
      {"smiles": "Cc1cc2c3c(c1C)C(C)(C)CCn3c(=O)c(=O)n2C[C@@H](O)[C@H](O)[C@H](O)CO", "note": "[Compound 3, 7,7,8,9-tetramethyl-1-((2R,3S,4R)-2,3,4,5-tetrahydroxy-pentyl)-6,7-dihydro-1H,5H-pyrido[1,2,3-de]quinoxaline-2,3-dione]", "MIC": 8},
      {"smiles": "CC1(C)CCn2c(=O)c(=O)n(C[C@@H](O)[C@H](O)[C@H](O)CO)c3cccc1c32", "note": "[Compound 8, 7,7-dimethyl-1-((2R,3S,4R)-2,3,4,5-tetrahydroxypentyl)-6,7-dihydro-1H,5H-pyrido[1,2,3-de]quinoxaline-2,3-dione]", "MIC": ">16"},
      {"smiles": "CC1(C)CCn2c(=O)n(Cc3cn(CCO)nn3)c3cccc1c32", "note": "[Compound 24, 1-((1-(2-hydroxyethyl)-1H-1,2,3-triazol-4-yl)methyl)-6,6-dimethyl-5,6-dihydro-4H-imidazo[4,5,1-ij]quinolin-2(1H)-one]", "MIC": ">16"}
    ]},
    {"test_system": "Salmonella enterica strain AMC (ATCC #6539)", "experiment": "Antibiotic assay: MIC by Promega Bac Titer-Glo microbial cell viability assay", "assay_type": "cell-based", "conditions": "Salmonella enterica, ATCC6539, 24 h, 24 hours treatment, inoculum ~5×10^4 CFU/mL, Mueller Hinton broth", "experimental": "as §1, §2", "units": {"MIC": "µg/mL"}, "values": [
      {"smiles": "Cc1cc2c3c(c1C)C(C)(C)CCn3c(=O)c(=O)n2C[C@H](O)[C@H](O)[C@H](O)CO", "note": "(stereo in doubt) [Compound 2, 7,7,8,9-tetramethyl-1-((2S,3S,4R)-2,3,4,5-tetrahydroxypentyl)-6,7-dihydro-1H,5H-pyrido[1,2,3-de]quinoxaline-2,3-dione]", "MIC": 8},
      {"smiles": "CC1(C)CCn2c(=O)n(Cc3cn(CCO)nn3)c3cccc1c32", "note": "[1-((1-(2-hydroxyethyl)-1H-1,2,3-triazol-4-yl)methyl)-6,6-dimethyl-5,6-dihydro-4H-imidazo[4,5,1-ij]quinolin-2(1H)-one]", "MIC": 8},
      {"smiles": "Cc1cc2c3c(c1C)C(C)(C)CCn3c(=O)c(=O)n2C[C@@H](O)[C@H](O)[C@H](O)CO", "note": "[7,7,8,9-tetramethyl-1-((2R,3S,4R)-2,3,4,5-tetrahydroxy-pentyl)-6,7-dihydro-1H,5H-pyrido[1,2,3-de]quinoxaline-2,3-dione]", "MIC": 8},
      {"smiles": "Cc1cc2nc(OC[C@H](O)[C@H](O)[C@H](O)CO)c(=O)n3c2c(c1C)C(C)(C)CC3", "note": "[Compound 1, 7,7,8,9-tetramethyl-2-(((2S,3R,4R)-2,3,4,5-tetrahydroxy-pentyl)oxy)-6,7-dihydro-3H,5H-pyrido[1,2,3-de]quinoxalin-3-one]", "MIC": 8},
      {"smiles": "CC1(C)CCn2c(=O)c(=O)n(CC(O)CO)c3cccc1c32", "note": "(stereo not drawn) [Compound 9, 1-(2,3-dihydroxypropyl)-7,7-dimethyl-6,7-dihydro-1H,5H-pyrido[1,2,3-de]quinoxaline-2,3-dione]", "MIC": 8}
    ]},
    {"test_system": "Salmonella enterica strain AMC (ATCC #6539)", "experiment": "Antibiotic assay: MIC by Promega Bac Titer-Glo microbial cell viability assay", "assay_type": "cell-based", "conditions": "Salmonella enterica, ATCC6539, 24 h, 24 hours treatment, inoculum ~5×10^4 CFU/mL, Mueller Hinton broth, read-out: MIC", "experimental": "as §1, §2", "units": {"MIC": "µg/mL"}, "values": [
      {"smiles": "Cc1cc2c3c(c1C)C(C)(C)CCn3c(=O)c(=O)n2C[C@H](O)[C@H](O)[C@H](O)CO", "note": "[Compound 2, 7,7,8,9-tetramethyl-1-((2S,3S,4R)-2,3,4,5-tetrahydroxypentyl)-6,7-dihydro-1H,5H-pyrido[1,2,3-de]quinoxaline-2,3-dione]", "MIC": 8},
      {"smiles": "Cc1cc2c3c(c1C)C(C)(C)CCn3c(=O)c(=O)n2CC(O)CO", "note": "(stereo not drawn) [Compound 4, 1-(2,3-dihydroxypropyl)-7,7,8,9-tetramethyl-6,7-dihydro-1H,5H-pyrido[1,2,3-de]quinoxaline-2,3-dione]", "MIC": "> 16"},
      {"smiles": "Cc1cc2c3c(c1C)C(C)(C)CCn3c(=O)c(=O)n2CC(O)C(O)C(O)CO", "note": "(stereo not drawn) [Compound 5, 7,7,8,9-tetramethyl-1-(2,3,4,5-tetrahydroxypentyl)-6,7-dihydro-1H,5H-pyrido[1,2,3-de]quinoxaline-2,3-dione]", "MIC": 4},
      {"smiles": "CC1(C)CCn2c(=O)c(OC[C@H](O)[C@H](O)[C@H](O)CO)nc3cccc1c32", "note": "[Compound 6, 7,7-dimethyl-2-(((2S,3R,4R)-2,3,4,5-tetrahydroxypentyl)oxy)-6,7-dihydro-3H,5H-pyrido[1,2,3-de]quinoxalin-3-one]", "MIC": "> 16"},
      {"smiles": "CC1(C)CCn2c(=O)c(=O)n(C[C@H](O)[C@H](O)[C@H](O)CO)c3cccc1c32", "note": "[Compound 7, 7,7-dimethyl-1-((2S,3S,4R)-2,3,4,5-tetrahydroxypentyl)-6,7-dihydro-1H,5H-pyrido[1,2,3-de]quinoxaline-2,3-dione]", "MIC": "> 16"},
      {"smiles": "CC1(C)CCn2c(=O)c(=O)n(C[C@@H](O)[C@H](O)[C@H](O)CO)c3cccc1c32", "note": "[Compound 8, 7,7-dimethyl-1-((2R,3S,4R)-2,3,4,5-tetrahydroxypentyl)-6,7-dihydro-1H,5H-pyrido[1,2,3-de]quinoxaline-2,3-dione]", "MIC": "> 16"},
      {"smiles": "CCOC(=O)Cn1cc(Cn2c(=O)c(=O)n3c4c(cccc42)C(C)(C)CC3)nn1", "note": "[Compound 10, ethyl 2-(4-((7,7-dimethyl-2,3-dioxo-2,3,6,7-tetrahydro-1H,5H-pyrido[1,2,3-de]quinoxalin-1-yl)methyl)-1H-1,2,3-triazol-1-yl)acetate]", "MIC": "> 16"},
      {"smiles": "COC1O[C@H](Cn2c(=O)c(=O)n3c4c(cccc42)C(C)(C)CC3)[C@@H](O)[C@H]1O", "note": "(stereo partly drawn) [Compound 11, 1-(((2R,3S,4R)-3,4-dihydroxy-5-methoxytetrahydrofuran-2-yl)methyl)-7,7-dimethyl-6,7-dihydro-1H,5H-pyrido[1,2,3-de]quinoxaline-2,3-dione]", "MIC": "> 16"},
      {"smiles": "CC1(C)CCn2c(=O)c(=O)n(C[C@@H](O)[C@H](O)CO)c3cccc1c32", "note": "[Compound 12, 7,7-dimethyl-1-((2R,3R)-2,3,4-trihydroxybutyl)-6,7-dihydro-1H,5H-pyrido[1,2,3-de]quinoxaline-2,3-dione]", "MIC": "> 16"},
      {"smiles": "CC1(C)CCn2c(=O)c(OC[C@H](O)[C@@H](O)CO)nc3cccc1c32", "note": "[Compound 13, 7,7-dimethyl-2-((2S,3S)-2,3,4-trihydroxybutoxy)-6,7-dihydro-3H,5H-pyrido[1,2,3-de]quinoxalin-3-one]", "MIC": 16},
      {"smiles": "CC(O)C(O)Cn1c(=O)c(=O)n2c3c(cccc31)C(C)(C)CC2", "note": "(stereo not drawn) [Compound 14, 1-(2,3-dihydroxybutyl)-7,7-dimethyl-6,7-dihydro-1H,5H-pyrido[1,2,3-de]quinoxaline-2,3-dione]", "MIC": "> 16"},
      {"smiles": "CC1(C)CCn2c(=O)c(=O)n(CC(O)C(C)(C)O)c3cccc1c32", "note": "(stereo not drawn) [Compound 15, 1-(2,3-dihydroxy-3-methylbutyl)-7,7-dimethyl-6,7-dihydro-1H,5H-pyrido[1,2,3-de]quinoxaline-2,3-dione]", "MIC": "> 16"},
      {"smiles": "CC1(C)CCn2c(=O)c(OC[C@H](O)CO)nc3cccc1c32", "note": "[Compound 16, (R)-2-(2,3-dihydroxypropoxy)-7,7-dimethyl-6,7-dihydro-3H,5H-pyrido[1,2,3-de]quinoxalin-3-one]", "MIC": "> 16"},
      {"smiles": "CC1(C)CCn2c(=O)n(C[C@H](O)[C@H](O)[C@H](O)CO)c3cccc1c32", "note": "[Compound 21, 6,6-dimethyl-1-((2S,3S,4R)-2,3,4,5-tetrahydroxypentyl)-5,6-dihydro-4H-imidazo[4,5,1-ij]quinolin-2(1H)-one]", "MIC": 4},
      {"smiles": "CC1(C)CCn2c(=O)n(CC(O)CO)c3cccc1c32", "note": "(stereo not drawn) [Compound 23, 1-(2,3-dihydroxypropyl)-6,6-dimethyl-5,6-dihydro-4H-imidazo[4,5,1-ij]quinolin-2(1H)-one]", "MIC": "> 16"},
      {"smiles": "CCOC(=O)Cn1cc(Cn2c(=O)n3c4c(cccc42)C(C)(C)CC3)nn1", "note": "[Compound 24b, Ethyl 2-(4-((6,6-dimethyl-2-oxo-5,6-dihydro-4H-imidazo[4,5,1-ij]quinolin-1(2H)-yl)methyl)-1H-1,2,3-triazol-1-yl)acetate]", "MIC": 8},
      {"smiles": "COC1O[C@H](Cn2c(=O)n3c4c(cccc42)C(C)(C)CC3)[C@@H](O)[C@H]1O", "note": "(stereo partly drawn) [Compound 25, 1-(((2R,3S,4R)-3,4-dihydroxy-5-methoxytetrahydrofuran-2-yl)methyl)-6,6-dimethyl-5,6-dihydro-4H-imidazo[4,5,1-ij]quinolin-2(1H)-one]", "MIC": 2},
      {"smiles": "CC1(C)CCn2c(=O)n(C[C@@H](O)[C@H](O)CO)c3cccc1c32", "note": "[Compound 26, 6,6-dimethyl-1-((2R,3R)-2,3,4-trihydroxybutyl)-5,6-dihydro-4H-imidazo[4,5,1-ij]quinolin-2(1H)-one]", "MIC": "> 16"}
    ]}
  ]
}
